How the values were obtained:
Format in all cases: physicochemical
[1] = Storage stability at 70° C. for one week (discolouration, decomposition); conditions: for stability, discolouration and decomposition on storage: 70° C., one week, identical conditions for both salts
[2] = Storage stability under atmospheric conditions at 60-70° C. (by-products, HPLC purity)
Source text: The compounds according to the invention and their hydrates can be used for the treatment and prevention of all disorders, which can be treated or prevented by using PPI. In particular, the compounds according to the invention and their hydrates can be used for treating gastric disorders. In this context particular mention should be made of the relatively high stability of compounds according to the invention and their hydrates. […] This relatively high storage stability makes the compounds according to the invention and their hydrates particularly suitable for use in medicaments.

[3] = Dissolution compared with racemic pantoprazole magnesium dihydrate

stability properties / stable storage form (general statement) ([1]; compared to the sodium salt of (−)-pantoprazole)	purity (according to HPLC) before storage ([2]; start value) [%]	purity (according to HPLC) after storage ([2]; storage under atmospheric conditions at 60-70° C.)	sum of by-products on storage ([2]; storage under atmospheric conditions, 60-70° C.)	Structure (SMILES)	stability, discolouration and decomposition on storage [1]	dissolution [3]
does not form a stable storage form	99.5	96-97%	–	COc1ccnc(C[S+]([O-])c2nc3cc(OC(F)F)ccc3[n-]2)c1OC.[Na+] (single isomer, unassigned; (-)) [(−)-pantoprazole sodium]	changes to brown, with formation of considerable amounts of decomposition products	–
–	–	–	remains virtually constant	COc1ccnc(C[S+]([O-])c2nc3cc(OC(F)F)ccc3[n-]2)c1OC.O.[Mg+2].[OH-] (stereo not drawn) [Example 2, Magnesium (−)-{[5-(difluoromethoxy)]-2-[(3,4-dimethoxy-2-pyridinyl)methylsulphinyl]-1H-benzimidazolide}hydroxy monohydrate]	completely stable for one week and shows virtually no discolouration or decomposition	faster dissolution than the racemic pantoprazole magnesium dihydrate

— patent publication US20060189590A1, “Alkaline salts of proton pump inhibitors” (priority 2003, published 2006)
